Experimental data as given in ChEMBL document CHEMBL1201862, “PubChem BioAssay data set” (2004).
Calls of active or inactive are those of the source.

Columns and labels:
[1] = inhibitors of intracellular T. cruzi replication, confirmation, NIH3T3 host cells, beta-gal luminescence (AID 2044); assay type: functional, cell-based;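 note: intracellular parasites grown in NIH/3T3 mouse fibroblasts as host cells; luminescent beta-galactosidase reporter signal from transgenic T. cruzi replicating inside host cells; inhibitors lower the luminescence signal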
[2] = target: T1, Heat shock factor protein 1 (Mus musculus, UniProt P38532); experiment: inhibition of MG132-induced HSE-luciferase signal, confirmation, cell-based, NIH3T3, luminescence, dose retest (AID 2382); assay type: functional;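 note: NIH3T3 fibroblasts with HSF1-driven luciferase reporter stressed by proteasome inhibitor MG132; luminescence from HSF1-driven luciferase expression after 8 hours of MG132 stress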
T1 sequence (P38532 whole entry): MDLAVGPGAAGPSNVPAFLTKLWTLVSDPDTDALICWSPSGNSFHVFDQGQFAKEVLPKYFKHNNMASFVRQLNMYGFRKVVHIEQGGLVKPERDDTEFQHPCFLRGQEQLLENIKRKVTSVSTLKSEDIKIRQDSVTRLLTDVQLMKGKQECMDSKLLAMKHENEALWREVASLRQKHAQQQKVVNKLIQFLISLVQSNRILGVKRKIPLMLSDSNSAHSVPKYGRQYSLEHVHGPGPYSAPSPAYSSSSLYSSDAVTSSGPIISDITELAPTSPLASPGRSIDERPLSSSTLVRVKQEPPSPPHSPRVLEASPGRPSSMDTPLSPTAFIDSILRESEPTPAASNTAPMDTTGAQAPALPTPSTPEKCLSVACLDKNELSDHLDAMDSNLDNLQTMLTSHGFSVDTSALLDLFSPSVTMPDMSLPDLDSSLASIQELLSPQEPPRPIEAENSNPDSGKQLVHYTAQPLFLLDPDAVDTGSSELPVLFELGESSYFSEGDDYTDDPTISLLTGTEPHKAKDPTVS

[3] = tested on: HEK293; experiment: SAR Analysis of small molecule inhibitors of both B-cell and T-cell specific antigen receptor-induced NF-kB activation in a HEK-293T cell line using a luminescence assay. [Related pubchem assays (depositor defined):AID435003, AID435022, AID465, AID489019, AID489029]; assay type: functional, cell-based; conditions: Homo sapiens
[4] = tested on: Jurkat; experiment: SAR Analysis of small molecule inhibitors of both B-cell and T-cell specific antigen receptor-induced NF-kB activation in a Jurkat cell line using a luminescence assay. [Related pubchem assays (depositor defined):AID435003, AID435022, AID465, AID489029]; assay type: functional, cell-based; conditions: Homo sapiens
[5] = tested on: Streptococcus; experiment: Group A Streptococcus viability loss, dose response, counter-screen for streptokinase expression inhibitor project, luminescence, BacTiterGlo (AID 1915); assay type: functional, organism-based;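 note: potency for reduction of bacterial viability or growth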
[6] = target: Beta-galactosidase (Escherichia coli, UniProt Q8VNN2); experiment: PubChem AID 485352; assay type: functional
[7] = Luminescence-based dose response cell-based high throughput screening assay for cytotoxic compounds using the IEC-6 intestinal epithelial cell line. [Related pubchem assays: 1858 (Summary AID.), 1825 (Counterscreen.), 1907 (Confirmation screen.)]; assay type: functional
[8] = tested on: HEK293; experiment: cytotoxicity in HEK293T NF-kB-Luc cells, SAR follow-up, cytotoxicity control for NF-kB activator project, cell-based, resazurin fluorescence (AID 493251); assay type: functional; conditions: Homo sapiens
[9] = target: T2, Streptokinase A (Streptococcus pyogenes serotype M1, UniProt P10520); experiment: S. pyogenes streptokinase expression inhibitors, potency, dose response, plasminogen activation absorbance, OD405 (AID 1914); assay type: functional, Streptococcus pyogenes M1 GAS;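 note: secreted streptokinase activity via plasminogen activation per viability signal from cell pellet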
T2 sequence (P10520 whole entry): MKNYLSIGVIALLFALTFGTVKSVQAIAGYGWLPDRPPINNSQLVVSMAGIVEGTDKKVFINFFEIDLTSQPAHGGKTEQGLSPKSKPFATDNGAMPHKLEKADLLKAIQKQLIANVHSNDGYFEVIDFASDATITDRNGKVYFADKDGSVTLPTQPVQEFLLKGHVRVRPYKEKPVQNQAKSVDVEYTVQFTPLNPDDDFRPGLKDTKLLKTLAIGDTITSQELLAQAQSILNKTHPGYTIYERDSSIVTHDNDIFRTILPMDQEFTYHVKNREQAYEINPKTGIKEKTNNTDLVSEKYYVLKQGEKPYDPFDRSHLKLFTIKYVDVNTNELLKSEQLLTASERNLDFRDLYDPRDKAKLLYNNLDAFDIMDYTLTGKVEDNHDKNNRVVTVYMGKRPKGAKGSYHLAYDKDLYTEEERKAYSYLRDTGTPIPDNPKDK

[10] = target: T3, Type-1 angiotensin II receptor (Homo sapiens, UniProt P30556); experiment: AT1 receptor antagonists, dose response, selectivity assay for APJ receptor antagonist project, cell-based, uHTS hits (AID 463214); assay type: functional;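 note: antagonist potency against angiotensin II stimulated AT1 response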
T3 sequence (P30556 whole entry): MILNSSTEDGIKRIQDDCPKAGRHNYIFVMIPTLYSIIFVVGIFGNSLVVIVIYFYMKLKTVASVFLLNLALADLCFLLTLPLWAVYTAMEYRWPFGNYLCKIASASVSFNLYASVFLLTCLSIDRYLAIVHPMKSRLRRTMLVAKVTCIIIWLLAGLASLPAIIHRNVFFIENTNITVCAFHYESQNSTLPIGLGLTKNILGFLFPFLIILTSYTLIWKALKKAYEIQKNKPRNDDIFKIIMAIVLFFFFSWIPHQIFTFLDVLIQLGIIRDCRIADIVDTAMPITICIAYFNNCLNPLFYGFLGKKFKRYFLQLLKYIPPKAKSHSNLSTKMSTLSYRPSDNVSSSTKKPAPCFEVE

[11] = Shn3 3'UTR reporter inhibitors, dose response, cell-based, Clone20 osteoblasts, firefly luciferase, cherry-picked (AID 624132); assay type: functional;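 note: firefly luciferase luminescence from reporter carrying the Shn3 3'UTR in osteoblasts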
[12] = control 3'UTR Renilla luciferase suppression, dose response, counter-screen for Shn3 inhibitor project, cell-based, Clone20-Shn3RL, cherry-picked (AID 624133); assay type: functional
[13] = cytotoxicity in HEK-293T cells, dose response, cytotoxicity control for TCR NF-kB inhibitor project, luminescence, T-cell screen hits (AID 489026); assay type: functional, cell-based;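 note: cells exposed to compound about 14 hours before the viability readout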
[14] = Fluorescence-based cell-based high throughput dose response assay for inhibitors of the interaction of nucleotide-binding oligomerization domain containing 2 (NOD2) and the receptor-interacting serine-threonine kinase 2 (RIPK2).; assay type: functional; conditions: Homo sapiens
[15] = cytotoxicity toward NIH3T3 fibroblasts, dose response, counter-screen, cell-based, ATP luminescence, mouse fibroblasts (AID 2010); assay type: functional;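 note: cells exposed to compound for about 90 hours before reading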
[16] = tested on: Streptococcus sp. 'group A'; experiment: growth inhibition of control SK(-) GAS strain, dose response, counter-screen for streptokinase expression inhibitor project, luminescence, kanamycin, BacTiterGlo, confirmation (AID 1900); assay type: functional, organism-based
[17] = HepG2 cell cytotoxicity, dose response, cytotoxicity control for Shn3 inhibitor project, CellTiter-Glo, cherry-picked (AID 624134); assay type: functional, cell-based
[18] = target: T4, Interleukin-1 receptor-associated kinase 4 (Homo sapiens, UniProt Q9NWZ3); assay type: functional
T4 sequence (Q9NWZ3 whole entry): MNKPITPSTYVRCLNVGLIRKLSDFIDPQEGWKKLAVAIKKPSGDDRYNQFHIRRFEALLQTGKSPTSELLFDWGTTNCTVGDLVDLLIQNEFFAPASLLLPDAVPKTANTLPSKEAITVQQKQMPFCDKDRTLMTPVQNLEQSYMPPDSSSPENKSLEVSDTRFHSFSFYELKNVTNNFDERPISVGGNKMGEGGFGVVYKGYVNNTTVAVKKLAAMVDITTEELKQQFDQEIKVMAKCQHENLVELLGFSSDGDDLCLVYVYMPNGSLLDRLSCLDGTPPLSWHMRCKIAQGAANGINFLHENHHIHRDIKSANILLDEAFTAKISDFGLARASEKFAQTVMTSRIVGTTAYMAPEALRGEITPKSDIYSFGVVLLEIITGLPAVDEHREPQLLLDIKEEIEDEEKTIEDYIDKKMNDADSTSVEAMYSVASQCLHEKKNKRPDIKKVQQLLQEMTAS

[19] = target: cAMP-dependent protein kinase catalytic subunit alpha (Homo sapiens, UniProt P17612); assay type: functional
[20] = target: Mitogen-activated protein kinase kinase kinase kinase 4 (Homo sapiens, UniProt O95819); assay type: functional
[21] = target: Cyclin-dependent kinase 9 (Homo sapiens, UniProt P50750); assay type: functional;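 note: value from the CDK9 entry of a kinome-spanning kinase panel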
[22] = target: Cell division cycle 7-related protein kinase (Homo sapiens, UniProt O00311); assay type: functional;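 note: value obtained from a kinome-wide kinase panel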
[23] = target: Serine/threonine-protein kinase pim-1 (Homo sapiens, UniProt P11309); assay type: functional
[24] = target: Homeodomain-interacting protein kinase 2 (Homo sapiens, UniProt Q9H2X6); assay type: functional;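 note: measured within a kinome-wide kinase profiling panel, HIPK2 being one panel member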
[25] = target: Cyclin-dependent kinase 7 (Homo sapiens, UniProt P50613); assay type: functional;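 note: value comes from a kinome-wide kinase profiling panel in which CDK7 is one member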
[26] = tested on: BJ; experiment: cells; assay type: functional, cell-based, Homo sapiens; conditions: Homo sapiens, BJ
[27] = tested on: BJ; experiment: cytotoxicity toward BJ-TERT-LT-ST fibroblasts, dose response, cell-based, RAS-independent, luminescence (AID 1935); assay type: functional, Homo sapiens; conditions: Homo sapiens, BJ;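 note: BJ fibroblasts immortalized with TERT plus LT and ST oncogenes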
[28] = target: T5, Orexin receptor type 2 (Homo sapiens, UniProt O43614); experiment: Counterscreen assay for antagonists of the orexin 1 receptor (OX1R; HCRTR1): Homogeneous Time Resolved Fluorescence (HTRF)-based cell-based dose response assay for antagonists of the orexin 2 receptor (OX2R; HCRTR2), run by assay provider.; assay type: functional
[29] = target: T6, Orexin/Hypocretin receptor type 1 (Homo sapiens, UniProt O43613); experiment: (§1) Fluorescence-based cell-based high throughput dose response assay for antagonists of the orexin 1 receptor (OX1R; HCRTR1). [Related pubchem assays (depositor defined):AID434989, AID435008, AID463079, AID485270, AID492963, AID492964, AID492965, AID493232, AID504717, AID504718]; assay type: functional
T6 sequence (O43613 whole entry): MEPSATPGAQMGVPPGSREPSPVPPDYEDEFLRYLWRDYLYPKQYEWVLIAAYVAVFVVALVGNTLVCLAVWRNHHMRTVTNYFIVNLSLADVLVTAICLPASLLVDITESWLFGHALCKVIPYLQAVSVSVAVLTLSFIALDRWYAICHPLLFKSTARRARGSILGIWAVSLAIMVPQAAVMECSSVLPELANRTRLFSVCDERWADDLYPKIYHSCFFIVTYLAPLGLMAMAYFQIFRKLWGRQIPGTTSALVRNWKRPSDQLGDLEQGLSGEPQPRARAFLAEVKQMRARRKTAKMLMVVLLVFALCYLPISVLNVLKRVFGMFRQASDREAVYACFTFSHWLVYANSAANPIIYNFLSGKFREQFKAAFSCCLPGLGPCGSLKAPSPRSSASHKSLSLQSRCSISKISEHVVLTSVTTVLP

[30] = (§2) Counterscreen for antagonists of the orexin 1 receptor (OX1R; HCRTR1): Fluorescence-based cell-based high throughput dose response assay to identify antagonists of the parental CHO cell line. [Related pubchem assays (depositor defined):AID434989, AID435008, AID463079, AID485270, AID492963, AID492964, AID492965, AID493232, AID504699, AID504701]; assay type: functional
[31] = Luminescence Cell-Based Dose Retest to Confirm Inhibitors of Cancer Stem Cells. [Related pubchem assays (depositor defined):AID2717, AID2721]; assay type: functional; conditions: Homo sapiens
[32] = cytotoxicity toward DRD oncogenic fibroblasts, dose response, cell-based, non-viral oncogenic, luminescence (AID 1934); assay type: functional; conditions: Homo sapiens
[33] = tested on: CHO-K1; experiment: as §2, with “Homogeneous time resolved fluorescence (HTRF)-based” for “Fluorescence-based”, “cell-based” for “cell-based high throughput”, “CHO-K1” for “CHO”; assay type: functional; conditions: Cricetulus griseus;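 note: potency for inhibition of ATP-stimulated IP1 production as antagonists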
[34] = target: T6, Orexin/Hypocretin receptor type 1; experiment: as §1, with “Homogeneous Time Resolved Fluorescence (HTRF)-based” for “Fluorescence-based”; assay type: functional
[35] = target: T5, Orexin receptor type 2; experiment: Counterscreen assay for antagonists of the orexin 1 receptor (OX1R; HCRTR1): Fluorescence-based cell-based dose response assay for antagonists of the orexin 2 receptor (OX2R; HCRTR2), run by assay provider.; assay type: functional
[36] = target: Paired box protein Pax-8 (Homo sapiens, UniProt Q06710); experiment: inhibitors of PAX8-driven TPO luciferase reporter, dose response, RMG-I cells, cherry-pick (AID 687027); assay type: functional, cell-based;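 note: luciferase reporter driven by Pax8 target thyroperoxidase promoter measured by SteadyGlo luminescence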
[37] = tested on: BJ; experiment: cytotoxicity toward BJ-TERT fibroblasts, dose response, cell-based, RAS-independent, luminescence (AID 1933); assay type: functional, Homo sapiens; conditions: Homo sapiens, BJ

T5 sequence (O43614 whole entry): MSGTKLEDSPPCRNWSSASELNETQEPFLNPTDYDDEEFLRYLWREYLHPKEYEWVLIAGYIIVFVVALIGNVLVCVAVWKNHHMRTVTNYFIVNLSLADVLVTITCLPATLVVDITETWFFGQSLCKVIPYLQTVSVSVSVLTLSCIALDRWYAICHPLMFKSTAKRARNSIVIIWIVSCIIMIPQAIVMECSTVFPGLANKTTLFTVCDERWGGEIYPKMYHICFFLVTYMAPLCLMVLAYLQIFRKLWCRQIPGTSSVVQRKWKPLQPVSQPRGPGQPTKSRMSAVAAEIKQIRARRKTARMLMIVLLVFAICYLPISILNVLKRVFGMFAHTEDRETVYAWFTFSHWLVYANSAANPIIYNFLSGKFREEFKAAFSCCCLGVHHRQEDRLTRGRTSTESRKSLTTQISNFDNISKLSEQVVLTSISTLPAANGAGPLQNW
Chain of Beta-galactosidase (Q8VNN2 whole entry): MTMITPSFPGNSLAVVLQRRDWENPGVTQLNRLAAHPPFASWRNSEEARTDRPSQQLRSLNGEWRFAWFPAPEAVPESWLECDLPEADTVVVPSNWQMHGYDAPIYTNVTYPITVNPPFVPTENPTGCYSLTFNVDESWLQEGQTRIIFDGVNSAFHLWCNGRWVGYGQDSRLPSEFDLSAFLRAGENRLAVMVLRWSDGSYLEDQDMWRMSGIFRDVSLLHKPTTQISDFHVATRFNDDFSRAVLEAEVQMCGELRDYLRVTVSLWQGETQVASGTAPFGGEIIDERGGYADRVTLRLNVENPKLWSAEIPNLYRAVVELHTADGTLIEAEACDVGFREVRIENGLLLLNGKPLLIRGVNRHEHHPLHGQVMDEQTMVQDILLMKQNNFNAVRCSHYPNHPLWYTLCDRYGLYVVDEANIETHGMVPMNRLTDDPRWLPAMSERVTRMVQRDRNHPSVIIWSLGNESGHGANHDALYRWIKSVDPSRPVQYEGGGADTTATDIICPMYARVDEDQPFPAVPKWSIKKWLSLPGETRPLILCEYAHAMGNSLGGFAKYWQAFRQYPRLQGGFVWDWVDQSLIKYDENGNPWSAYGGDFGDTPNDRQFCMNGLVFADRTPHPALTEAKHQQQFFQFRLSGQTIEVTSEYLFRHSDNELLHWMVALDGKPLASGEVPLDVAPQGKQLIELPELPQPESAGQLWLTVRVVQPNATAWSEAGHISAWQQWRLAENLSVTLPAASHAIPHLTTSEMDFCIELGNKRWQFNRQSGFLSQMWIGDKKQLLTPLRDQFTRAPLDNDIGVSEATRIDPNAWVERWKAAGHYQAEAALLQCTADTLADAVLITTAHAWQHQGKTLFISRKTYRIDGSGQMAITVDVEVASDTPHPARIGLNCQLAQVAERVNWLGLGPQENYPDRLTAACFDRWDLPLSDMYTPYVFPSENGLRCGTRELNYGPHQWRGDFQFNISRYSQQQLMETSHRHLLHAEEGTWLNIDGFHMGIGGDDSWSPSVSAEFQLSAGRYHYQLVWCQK
Chain of Mitogen-activated protein kinase kinase kinase kinase 4 (O95819 whole entry): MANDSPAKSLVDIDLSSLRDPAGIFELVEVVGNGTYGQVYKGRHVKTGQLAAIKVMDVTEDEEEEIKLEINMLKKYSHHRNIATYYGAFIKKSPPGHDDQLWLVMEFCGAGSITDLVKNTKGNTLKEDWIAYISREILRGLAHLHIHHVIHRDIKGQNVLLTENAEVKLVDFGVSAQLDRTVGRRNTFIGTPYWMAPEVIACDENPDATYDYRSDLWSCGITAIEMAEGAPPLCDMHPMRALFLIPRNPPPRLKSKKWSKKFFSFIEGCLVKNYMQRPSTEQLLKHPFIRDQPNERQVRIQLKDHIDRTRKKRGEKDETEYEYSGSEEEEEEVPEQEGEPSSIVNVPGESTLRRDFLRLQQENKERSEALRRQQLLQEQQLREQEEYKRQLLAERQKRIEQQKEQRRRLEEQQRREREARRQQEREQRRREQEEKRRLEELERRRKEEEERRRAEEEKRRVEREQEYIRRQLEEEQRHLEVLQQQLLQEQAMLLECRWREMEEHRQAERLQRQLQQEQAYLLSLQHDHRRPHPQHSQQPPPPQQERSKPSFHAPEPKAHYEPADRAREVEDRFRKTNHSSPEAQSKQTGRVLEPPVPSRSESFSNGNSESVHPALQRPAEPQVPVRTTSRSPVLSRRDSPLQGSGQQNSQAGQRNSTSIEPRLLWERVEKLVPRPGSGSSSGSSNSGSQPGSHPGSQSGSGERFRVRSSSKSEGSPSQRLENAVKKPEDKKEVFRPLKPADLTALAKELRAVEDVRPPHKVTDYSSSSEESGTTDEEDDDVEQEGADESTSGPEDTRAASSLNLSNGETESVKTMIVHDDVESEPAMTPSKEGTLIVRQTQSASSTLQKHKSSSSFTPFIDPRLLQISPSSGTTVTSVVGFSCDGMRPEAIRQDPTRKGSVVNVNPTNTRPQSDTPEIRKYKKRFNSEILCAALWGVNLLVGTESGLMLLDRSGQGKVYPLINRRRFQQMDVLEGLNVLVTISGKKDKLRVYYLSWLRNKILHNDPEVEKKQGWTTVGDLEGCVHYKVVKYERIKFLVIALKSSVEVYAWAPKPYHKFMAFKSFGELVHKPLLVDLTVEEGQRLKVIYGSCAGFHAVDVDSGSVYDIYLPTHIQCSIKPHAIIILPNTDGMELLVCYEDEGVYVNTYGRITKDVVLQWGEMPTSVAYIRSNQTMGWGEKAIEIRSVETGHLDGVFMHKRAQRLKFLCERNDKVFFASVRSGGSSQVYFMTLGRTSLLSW
Chain of Cell division cycle 7-related protein kinase (O00311 whole entry): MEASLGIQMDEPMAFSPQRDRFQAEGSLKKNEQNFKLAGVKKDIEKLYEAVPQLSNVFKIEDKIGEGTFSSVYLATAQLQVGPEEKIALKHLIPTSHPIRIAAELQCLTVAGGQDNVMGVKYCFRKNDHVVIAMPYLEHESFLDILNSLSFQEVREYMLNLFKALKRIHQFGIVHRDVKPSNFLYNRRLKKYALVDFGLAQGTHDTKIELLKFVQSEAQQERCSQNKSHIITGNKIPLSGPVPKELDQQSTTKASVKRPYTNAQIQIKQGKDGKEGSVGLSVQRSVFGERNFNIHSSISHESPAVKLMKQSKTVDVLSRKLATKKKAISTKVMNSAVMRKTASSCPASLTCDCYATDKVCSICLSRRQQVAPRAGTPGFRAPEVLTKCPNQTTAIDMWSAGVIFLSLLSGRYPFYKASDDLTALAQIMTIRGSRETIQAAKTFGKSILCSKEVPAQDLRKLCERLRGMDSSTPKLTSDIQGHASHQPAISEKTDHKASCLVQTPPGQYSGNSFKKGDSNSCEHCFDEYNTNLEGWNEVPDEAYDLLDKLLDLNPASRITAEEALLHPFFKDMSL
Chain of Cyclin-dependent kinase 9 (P50750 whole entry): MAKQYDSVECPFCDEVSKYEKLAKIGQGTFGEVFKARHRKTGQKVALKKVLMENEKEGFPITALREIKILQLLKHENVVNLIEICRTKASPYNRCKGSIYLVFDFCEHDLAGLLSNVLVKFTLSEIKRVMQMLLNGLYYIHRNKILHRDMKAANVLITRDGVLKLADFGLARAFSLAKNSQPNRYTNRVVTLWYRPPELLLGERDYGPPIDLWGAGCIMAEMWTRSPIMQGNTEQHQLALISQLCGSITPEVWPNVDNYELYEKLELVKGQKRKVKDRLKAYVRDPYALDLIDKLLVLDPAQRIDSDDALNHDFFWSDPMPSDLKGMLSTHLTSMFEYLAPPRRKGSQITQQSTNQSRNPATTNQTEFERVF
Chain of Homeodomain-interacting protein kinase 2 (Q9H2X6 whole entry): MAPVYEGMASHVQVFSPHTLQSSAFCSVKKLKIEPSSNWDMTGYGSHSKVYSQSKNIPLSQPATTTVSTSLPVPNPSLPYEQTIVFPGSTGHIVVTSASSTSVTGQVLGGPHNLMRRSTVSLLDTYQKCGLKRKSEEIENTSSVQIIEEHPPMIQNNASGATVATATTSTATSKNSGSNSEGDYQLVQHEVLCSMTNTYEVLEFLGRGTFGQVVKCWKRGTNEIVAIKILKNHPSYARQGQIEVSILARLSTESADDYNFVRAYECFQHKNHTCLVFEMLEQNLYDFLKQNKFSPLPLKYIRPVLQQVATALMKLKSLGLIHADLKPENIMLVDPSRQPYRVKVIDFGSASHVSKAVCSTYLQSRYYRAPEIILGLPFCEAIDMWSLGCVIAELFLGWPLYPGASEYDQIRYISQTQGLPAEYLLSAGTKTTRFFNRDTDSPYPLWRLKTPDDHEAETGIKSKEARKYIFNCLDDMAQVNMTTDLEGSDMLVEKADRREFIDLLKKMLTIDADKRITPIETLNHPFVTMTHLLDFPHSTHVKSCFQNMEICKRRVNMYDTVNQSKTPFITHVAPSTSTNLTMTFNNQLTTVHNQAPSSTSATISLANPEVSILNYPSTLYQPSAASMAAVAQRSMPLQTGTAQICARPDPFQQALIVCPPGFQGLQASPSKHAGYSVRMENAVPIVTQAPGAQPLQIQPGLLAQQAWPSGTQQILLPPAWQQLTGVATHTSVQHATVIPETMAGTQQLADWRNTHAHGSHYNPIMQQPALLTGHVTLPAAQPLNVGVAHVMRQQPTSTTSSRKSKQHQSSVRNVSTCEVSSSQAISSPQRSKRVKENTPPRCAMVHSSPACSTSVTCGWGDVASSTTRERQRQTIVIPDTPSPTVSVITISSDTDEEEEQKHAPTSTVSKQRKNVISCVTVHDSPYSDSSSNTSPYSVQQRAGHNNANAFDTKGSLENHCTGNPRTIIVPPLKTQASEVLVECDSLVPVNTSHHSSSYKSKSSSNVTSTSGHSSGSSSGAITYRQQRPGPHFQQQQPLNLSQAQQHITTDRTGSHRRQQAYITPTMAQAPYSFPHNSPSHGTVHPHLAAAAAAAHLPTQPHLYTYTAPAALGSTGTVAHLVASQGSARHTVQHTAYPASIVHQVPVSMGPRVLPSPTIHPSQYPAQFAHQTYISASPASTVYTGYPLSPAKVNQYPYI

## COc1cc(NS(=O)(=O)c2ccc(C)cc2)c2ncccc2c1
[1]
  EC50: 0.524 µM (active)
[2]
  EC50: 24.3 µM (active)
[3]
  IC50: > 79 µM (inactive)
[4]
  IC50: 1.52 µM (active)
[5]
  EC50: 21.7 µM (active)
[6]
  EC50: > 40 µM (inactive)
[7]
  IC50: 1.58 µM (active)
[8]
  IC50: > 80 µM (inactive)
[9]
  EC50: > 150 µM (not active)
[10]
  IC50: 3.88 µM (active)
[11]
  AC50: 3.35 µM (active)
[12]
  AC50: 13.8 µM (active)
[13]
  IC50: > 80 µM (inactive)
[14]
  IC50: 5.53 µM (active)
[15]
  EC50: 1.45 µM (active)
[16]
  EC50: 2.6 µM (active)
[17]
  AC50: 9.77 µM (active)

## NC(=O)c1ccccc1Nc1nc(Nc2ccccc2)ncc1C(F)(F)F
[18]
  Ki: 0.0398 µM (active)
[19]
  Ki: 0.2 µM (active)
[20]
  Ki: 0.0251 µM (active)
[21]
  Ki: 0.0398 µM (active)
[22]
  Ki: 0.00501 µM (active)
[23]
  Ki: 2.51 µM (active)
[24]
  Ki: 0.00398 µM (active)
[25]
  Ki: 0.00501 µM (active)

## CCn1c2ccccc2c2cc(NC(=O)c3cc(OC)cc(OC)c3)ccc21
[26]
  EC50: 22.8 µM (active)
[27]
  EC50: 0.365 µM (inconclusive)
[28]
  IC50: > 50 µM (inactive)
[29]
  IC50: 1.38 µM (active)
[30]
  IC50: > 49.8 µM (inactive)
[31]
  AC50: < 0.16 µM (active)
[32]
  EC50: 0.545 µM (active)
[33]
  IC50: > 66.2 µM (inactive)
[34]
  IC50: 0.554 µM (active)
[13]
  IC50: > 80 µM (inactive)
[35]
  IC50: 21.7 µM (inactive)
[36]
  AC50: 4.74 µM (active)
[37]
  EC50: 0.431 µM (active)
